Data: patent US8710097B2, “Flavonoid dimers and methods of making and using such” (The Hong Kong Polytechnic University, priority 2006, dated 2014)

What was measured:
P388/ADR cells [1] = assay: Doxorubicin accumulation; assay type: cell-based, murine; conditions: 10 μM doxorubicin, 2 h, FIG. 11A
[2] = test system: wild type L. enriettii (Le); assay: Leishmania cell viability (MTS) assay; assay type: cell-based, Leishmania enriettii; conditions: Le wild type
Description: Cell lines and Cell Culture. Promastigotes of Leishmania enriettii (LePentR50, Le wild type, LeMDR1 −/− and LeMDR1-overexpressed LeV160 mutants) and Leishmania donovani (LdAG83, Ld2001 and Ld39) were employed in this study. The former is a natural infective strain of guinea pig and the latter is a clinical strain, which may cause visceral leishmaniasis in human. Both strains were cultured in Schneider's Drosophila Medium (Invitrogen), pH 6.9 supplemented with 10% (v/v) heat inactivated fetal calf serum (Hyclone) with 4 mM glutamine (Sigma) and 25 μg/mL gentamicin solution (Invitrogen), at 27° C. for 4 days (Cloning and functional analysis of an extrachromosomally amplified multidrug resistance-like gene in Leishmania enriettii. Mol. Biochem. Parasitol 1993, 60, 195-208).
Promastigotes of LeV160 were culture in the presence of 160 μg/mL vinblastine. No pentamidine and vinblastine (Sigma) was added to the Le wild type and LeMDR1 −/− mutant.
The viability of promastigotes was determined by the Cell Titer 96® Aqueous Assay (Promega) that employs a tetrazolium compound (MTS) and electron coupling reagent, phenazine methosulfate (PMS). Promastigotes were seeded into 96-well flat bottom microtiter plate at 1×10^5 cells per well in a final volume of 100 μL medium. To determine the cytotoxic effects of flavonoid dimers to the parasites, various concentrations of flavonoid dimers were added to the promastigotes. To determine the reversal effects of flavonoid dimers with different spacer lengths, various concentrations of antileishmanial drugs, one of pentamidine or SSG, vinblastine and puromycin was added to the wells with or without flavonoid dimers. The parasites were incubated at 27° C. for 72 hrs. Each concentration of antileishmanials with or without the flavonoid dimers was tested in triplicates in each experiment. A 2 mg/mL MTS and 0.92 mg/mL PMS were mixed at a ratio of 20:1 (MTS: PMS). […] After 4 hrs of incubation, the OD values were determined at 490 nm using automatic microtiter plate reader (Bio-Rad).

[3] = test system: wild type L. donovani LdAG83 promastigotes; assay: Leishmania cell viability (MTS) assay; assay type: cell-based, Leishmania donovani
P388/ADR cells [4] = assay: cells; conditions: P388/ADR
Description: MDA435/LCC6 and P388 (both parent and MDR subtype) were maintained in DMEM and RPMI 1640 culture medium supplemented with 10% FBS, respectively. RPMI 1640 media also contained 100 units/ml penicillin and 100 μg/ml streptomycin. Cells were cultured at 37° C. in a humidified atmosphere with 5% CO2. A solution of 0.05% trypsin-EDTA was used to detach the MDA435/LCC6 (both wild type and MDR subtype) cells.
Cell proliferation assay. MDA435/LCC6 and P388 (both parent and MDR subtype) cells were seeded at 2000 and 5000 cells per well, respectively, in 96-well plates. Varying concentrations of anticancer drugs (Doxorubicin, Daunorubicin, Vincristine, Vinblastine, taxol, Mitoxantrone) with or without the flavonoid dimers were added in a final volume of 200 μl and cells were grown for 4 and 3 days for MDA435/LCC6 and P388 (both parent and MDR subtype) cells, respectively. For MDA435/LCC6 (both parent and MDR subtype), the corresponding drugs were added after cell attachment (24 hr incubation). To measure cell proliferation, the cell Titer 960 Aqueous Assay (Promega) was used according to the manufacturer's instructions. Briefly, MTS (2 mg/ml) and PMS (0.92 mg/ml) were mixed in a ratio of 20:1. 30 μl MTS/PMS mixture was added into each well and incubated for 2 hours at 37° C. Optical absorbance at 490 nm was then recorded using an ELISA microtiter plate reader (Bio-Rad). Each experiment was done at least in triplicate and repeated twice. Cytotoxicity of the anticancer drugs was expressed as the fraction of the cells survived relative to the untreated DMSO (0.05%) solvent controls.

Question: With `O=c1cc(-c2ccc(OCCOCCOCCOCCOc3ccc(-c4cc(=O)c5c(O)cc(O)cc5o4)cc3)cc2)oc2cc(O)cc(O)c12` [Compound 9d, 1,13-Bis[4′-((5,7-dihydroxy)-4H-chromen-4-on-2-yl)phenyl]-1,4,7,10,13-pentaoxamidecane] as the compound, how does the “increase of doxorubicin accumulation, folds of control” value (P388/ADR cells [1]) read?
Answer: Its value is “about 2 folds”.

Question: And the “decrease of IC50 of pentamidine” value [2]?
Answer: Its value is “about 3 fold”.

Question: What about the “modulating effect on SSG sensitivity” value ([3]; LdAG83, up to 6 μM, FIG. 17C) of the same compound?
Answer: The value was “did not have any modulating effect”.

Question: And the “modulatory effect on SSG sensitivity” value ([3]; SSG-sensitive wild type LdAG83, FIG. 14D)?
Answer: The value was “no modulatory effect”.

Question: What about the IC50 ([3]; cytotoxicity of compound alone, 72 hrs, read-out: IC50(μM) of synthetic flavonoid, LdAG83) of the same compound?
Answer: The IC50 was 7 ± 0.4 µM.

Question: What about the “reversal of resistance to taxol, vincristine and vinblastine” value (P388/ADR cells [4]; 5 μM 9d) of the same compound?
Answer: The value was “completely reverse the resistance of P388/ADR to almost the sensitive level”.

Question: What about the “effect on mitoxantrone resistance” value (P388/ADR cells [4]; 9d) of the same compound?
Answer: Its value is “no effect”.

Question: And the “saturating concentration for reversing doxorubicin and daunorubicin resistance” value (P388/ADR cells [4]; FIG. 8B, 9B)?
Answer: Its value is “about 5 μM”.

Question: And the “RF, daunorubicin” value (P388/ADR cells [4]; daunorubicin + 5 μM 9d or VP)?
Answer: The value was 20.

Question: And the “RF, doxorubicin” value (P388/ADR cells [4]; doxorubicin + 5 μM 9d)?
Answer: The value was 14.

Question: And the “RF, mitoxantrone” value (P388/ADR cells [4]; mitoxantrone + 5 μM 9d)?
Answer: The value was 2.

Question: What about the “RF, taxol” value (P388/ADR cells [4]; taxol + 5 μM 9d) of the same compound?
Answer: Its value is 55.

Question: And the “RF, vinblastine” value (P388/ADR cells [4]; vinblastine + 5 μM 9d)?
Answer: Its value is 22.

Question: What about the “RF, vincristine” value (P388/ADR cells [4]; vincristine + 5 μM 9d) of the same compound?
Answer: Its value is 66.
